Data reported in patent US3978055A, “Arylamino pyrimidinic derivatives” (priority 1973, dated 1976).
Where two headings read alike, the source gives them in different places.

Legend:
Shay ulcers = test: Gastric ulcers provoked by tying of the pylorus (Shay ulcers); format: in vivo; conditions: intraduodenal; rat, 50mg/kg/i.d.; read-out: Percentage reduction of shay ulcers
Method: The derivatives of formula I, administered by oral means, reduce the extent of gastric ulcers provoked in a rat by tying of the pylorus (Shay ulcers)
Table IV indicated, by way of example, the results obtained by the administration of 50mg/kg/i.d. of different derivatives of formula I.

[1] = tested on: isolated heart of guinea-pig; test: Augmentation of flow of coronary vessels of isolated heart (vasodilatatory); conditions: Cavia porcellus, read-out: Percentage augmentation of flow of isolated heart of guinea-pig; for activation at 1 µg/mL: 1 μg/ml
Method: The derivatives of formula I are capable of augmenting the flow of the coronary vessels of this isolated heart of a guinea - pig, when said derivatives are added in the perfusion liquid of said organ.
The percentage augmentation of the flow of the isolated heart of the guinea - pig by adding different derivatives of formula I to the perfusion liquid are given by way of example in the following Table V.

[2] = tested on: bronchoconstriction provoked by acetylcholine; test: Bronchoconstriction provoked by intravenous acetylcholine, Konzett method; format: in vivo; conditions: guinea-pig, intraperitoneal injection of 100mg/kg
Method: Injected by intraduodenal means, the derivatives of formula I are capable of opposing the bronchoconstriction provoked in the guinea - pig by the intraveinous injection of acetylcholine and evaluated by the Konzett method.
By way of example, the following Table VI lists the percentage inhibition of the bronchoconstriction following the intraperitoneal injection of 100mg/kg of different derivatives of formula I.

[3] = tested on: local oedema caused by sub-plantar injection of carraghenine; test: Sub-plantar oedema caused by carraghenine (antiinflammatory); format: in vivo, rat; conditions: for inhibition in vivo at 100 mg/kg: 100 mg/kg/PO, read-out: Percentage reduction of subplantar oedema; for ED50: po
Description: These properties are shown by a diminution of the local oedema caused by the sub-plantar injection of a phlogogenic agent, such as carraghenine, in the rat following the oral administration of derivatives of formula I.

[4] = Lethal doses / percentage mortality; format: in vivo; conditions: in vivo, mouse; for LD50: po, Table IX, read-out: DE 50 (second column; DL 50) (converted)
Description: (§1) As a result of a comparison between the pharmacologically active doses mentioned above, and the lethal doses listed in the following table XIV, the difference between the doses is sufficiently great to permit the utilisation of the derivatives of formula I in therapeutics.

volume of urine emitted = test: Augmentation of urinary elimination (diuretic properties); format: in vivo; conditions: po; mouse, 25mg/kg/p.o., 6 hours; read-out: Percentage augmentation of urinary elimination
Method: The derivatives of formula I, administered by oral means to the mouse, simultaneously with a volume of 1ml of an isotonic solution of sodium chloride per 25g of the corporeal weight of the mouse, are capable of provoking an augmentation of the volume of urine emitted by reference to control animals, the volume being measured for 6 hours following administration.
The following Table VII indicates, by way of example the percentage augmentation of urinary elimination resulting from the administration of 25mg/kg/p.o. of different derivatives of formula I.

[5] = tested on: isolated heart of the guinea-pig; test: Force of contractions on isolated heart (positive inotrope action); conditions: 1 μg/ml
Method: Additionally, the derivative of Code No. 730 712 added to the conserving medium in a concentration of 1 μg/ml, permit an augmentation of 140% in the force of contractions on the isolated heart of the guinea- pig.

[6] = tested on: number of explorations in the escape enclosure; test: Number of explorations in the escape enclosure (sedative properties); format: in vivo, mouse; conditions: po; mouse, escape enclosure, 100mg/kg/p.o.; read-out: Percentage diminution of number of explorations
[7] = tested on: painful stretchings caused by phenylbenzoquinone; test: Analgesic test with phenylbenzoquinone (painful stretchings); format: in vivo; conditions: Mus musculus, po; for ED50: read-out: 105 DE (DE 50); for inhibition in vivo at 100 mg/kg: read-out: Percentage of diminution of the number of painful stretchings
[8] = tested on: analgesic action of dextromoramide in the Eddy test; test: Eddy test (potentialisation of dextromoramide analgesia); format: in vivo, mouse; conditions: for ED50: Mus musculus, po, read-out: 105 DE (DE 50)
[9] = tested on: crying and jumping in the Randall and Selitto test; test: Randall and Selitto test; format: in vivo, rat; conditions: for ED50: po, read-out: 105 DE (DE 50)
[10] = tested on: arterial pressure of anaesthetised rat; test: Lowering of arterial pressure of anaesthetised rat (hypotensive properties); format: in vivo; conditions: 2 mg/kg/i.v.
Description: Administered by intraveinous means to an anaesthetised rat, the derivatives of formula I provoke a lowering of the arterial pressure.
By way of example, the following Table VIII mentions the results obtained by administration of different derivatives of formula I.

[11] = tested on: painful stretchings caused by bradykinine; test: Analgesic test with bradykinine (painful stretchings); format: in vivo, mouse; conditions: Mus musculus, po, read-out: 105 DE (DE 50)
mouse = test: Lethal doses / percentage mortality; format: in vivo; conditions: Table IX
Description: as §1

[12] = tested on: painful stretchings caused by acetic acid; test: Analgesic test with acetic acid (painful stretchings); format: in vivo, mouse; conditions: po, read-out: 105 DE (DE 50)
[13] = tested on: pain threshold in the dentary pulp stimulation test; test: Dentary pulp stimulation test; format: in vivo; conditions: rabbit
Description: Moreover, the derivatives of formula I, administered rectally to a rabbit, enabled the pain threshold to be raised in the dentary pulp stimulation test.
As an example, the following table XI gives the results of a comparative study between the activity of derivative code number 730 229 and that of glaphenine, the activities being estimated by the dentary stimulation test

[14] = antiinflammatory activity, rat, read-out: DE 50 (the source's name)

## Cc1cc(Nc2ccc(C(=O)N3CCCC3)cc2)nc(-c2ccc(Cl)cc2)n1 [72 255]
Shay ulcers
  inhibition in vivo at 50 mg/kg: 35%
[1]
  activation at 1 µg/mL: 45%
[2]
  Percentage inhibition of bronchoconstriction: 50%
[3]; rat
  inhibition in vivo at 100 mg/kg: 60%
[4]; 2000 mg/kg, 2 000 mg/kg/PO
  mortality: 0%

## Cc1cc(Nc2ccccc2C(N)=O)nc(-c2ccc(Cl)cc2)n1 [72 257]
Shay ulcers
  inhibition in vivo at 50 mg/kg: 50%
[1]
  activation at 1 µg/mL: 80%
[4]; 2000 mg/kg, 2 000 mg/kg/PO
  mortality: 0%

## Cc1cc(Nc2ccc(C(=O)N3CCN(c4ccccc4)CC3)cc2)nc(-c2ccc(Cl)cc2)n1 [72 260]
Shay ulcers
  inhibition in vivo at 50 mg/kg: 35%
[1]
  activation at 1 µg/mL: 70%
[4]; 2000 mg/kg, 2 000 mg/kg/PO
  mortality: 0%

## Cc1cc(Nc2ccc(C(=O)N3CCCCC3)cc2)nc(-c2ccc(Cl)cc2)n1 [72 276]
Shay ulcers
  inhibition in vivo at 50 mg/kg: 40%
[2]
  Percentage inhibition of bronchoconstriction: 50%
[4]; 2000 mg/kg, 2 000 mg/kg/PO
  mortality: 0%

## Cc1cc(Nc2ccc(C(N)=O)cc2)nc(-c2ccc(Cl)cc2)n1 [72 311]
Shay ulcers
  inhibition in vivo at 50 mg/kg: 40%
[2]
  Percentage inhibition of bronchoconstriction: 80%
[3]; rat
  inhibition in vivo at 100 mg/kg: 50%
[4]; 2000 mg/kg, 2 000 mg/kg/PO
  mortality: 0%

## Cc1cc(Nc2ccccc2C(N)=O)nc(-c2cccc(C(F)(F)F)c2)n1 [72 419]
Volume of urine emitted
  change in vivo at 25 mg/kg: 80%
[5]
  positive inotrope action: positive inotrope action
[3]; rat
  inhibition in vivo at 100 mg/kg: 50%
[4]; 2000 mg/kg, 2 000 mg/kg/PO
  mortality: 0%

## COc1cc(-c2nc(C)cc(Nc3ccc(C(=O)N4CCN(c5ccccc5)CC4)cc3)n2)cc(OC)c1OC [72 450]
[6]
  inhibition in vivo at 100 mg/kg: 35%
[1]
  activation at 1 µg/mL: 85%
[4]; 2000 mg/kg, 2 000 mg/kg/PO
  mortality: 0%

## Cc1cc(Nc2ccccc2C(=O)OCC(O)CO)nc(-c2cccc(C(F)(F)F)c2)n1 (stereo not drawn) [72 502, 2 - (3' - trifluoromethylphenyl)-4-[ortho (β, γ-dihydroxy propoxycarbonyl)phenylamino] -6-methyl pyrimidine]
Shay ulcers
  inhibition in vivo at 50 mg/kg: 35%
[2]
  Percentage inhibition of bronchoconstriction: 50%
[4]; 2000 mg/kg, 2 000 mg/kg/PO
  mortality: 0%

## CCOC(=O)c1ccc(Nc2cc(C)nc(-c3ccc4c(c3)OCO4)n2)cc1 [72 613]
Shay ulcers
  inhibition in vivo at 50 mg/kg: 70%
[1]
  activation at 1 µg/mL: 85%
[4]; 2000 mg/kg, 2 000 mg/kg/PO
  mortality: 0%

## Cc1cc(Nc2ccccc2C(=O)OCC2COC(C)(C)O2)nc(-c2cccc(F)c2)n1 (stereo not drawn) [72 796]
[1]
  activation at 1 µg/mL: 60%
[4]; 2000 mg/kg, 2 000 mg/kg/PO
  mortality: 0%

## Cc1cc(Nc2ccccc2C(=O)OCC(O)CO)nc(-c2cccc(F)c2)n1 (stereo not drawn) [72 826]
[2]
  Percentage inhibition of bronchoconstriction: 100%
Volume of urine emitted
  change in vivo at 25 mg/kg: 80%
[3]; rat
  inhibition in vivo at 100 mg/kg: 60%
[4]; 2000 mg/kg, 2 000 mg/kg/PO
  mortality: 0%

## Cc1cc(Nc2ccc(C(N)=O)cc2)nc(-c2ccc3c(c2)OCO3)n1 [730 025]
Shay ulcers
  inhibition in vivo at 50 mg/kg: 35%
[2]
  Percentage inhibition of bronchoconstriction: 50%
Volume of urine emitted
  change in vivo at 25 mg/kg: 140%
[4]; 2000 mg/kg, 2 000 mg/kg/PO
  mortality: 0%

## Cc1cc(Nc2ccc(OCCN(C)C)cc2)nc(-c2ccc(Cl)cc2)n1 [730 225]
Shay ulcers
  inhibition in vivo at 50 mg/kg: 53%
[7]
  ED50: 42 mg/kg
[8]
  ED50: 80 mg/kg
[9]; Randall and Selitto test, 100 mg/kg/PO
  Percentage of diminution of the number of painful stretchings: 50%
[4]; 2000 mg/kg, 2 000 mg/kg/PO
  mortality: ~20%
[4]
  LD50: > 2000 mg/kg

## Cc1cc(Nc2ccc(OCCN(C)C)cc2)nc(-c2cccc(C(F)(F)F)c2)n1 [730 241]
[1]; 0.5 μg/ml
  activation at 0.5 µg/mL: 77%
[10]
  Percentage reduction of arterial pressure of anaesthetised rat: 24%
[10]; hypotensive effect
  Duration of effect: 30 mn
[7]
  inhibition in vivo at 100 mg/kg: 67%
[4]; 2000 mg/kg, 2 000 mg/kg/PO
  mortality: 0%

## Cc1cc(Nc2ccc(OCCN(C)C)cc2)nc(-c2cccc(Cl)c2)n1 [730 262]
[7]
  ED50: 52 mg/kg
[11]
  ED50: 100 mg/kg
[8]
  ED50: 60 mg/kg
[4]; 2 2500 mg/kg/PO
  mortality: ~50%
[4]
  LD50: 2500 mg/kg
mouse
  DE 50 (second column; DL 50): 2 500 mg/kg/PO

## Cc1cc(Nc2ccc(OCCN3CCCCCC3)cc2)nc(-c2cccc(Cl)c2)n1 [730 283]
Shay ulcers
  inhibition in vivo at 50 mg/kg: 45%
[1]; 0.1 μg/ml
  activation at 0.1 µg/mL: 61%
[7]
  inhibition in vivo at 100 mg/kg: 57%
[4]; 1000 mg/kg, 1 000 mg/kg/PO
  mortality: ~50%

## CC(=O)Oc1ccccc1C(=O)O [acetylsalicylic acid, reference compound]
[7]
  ED50: 72 mg/kg
[11]
  ED50: 180 mg/kg
[12]; Mus musculus
  ED50: 115 mg/kg
[8]; 200 mg/kg/PO
  effect in Eddy test (40 % with 200): 40%
[8]
  ED50: > 200 mg/kg
[9]; Rattus norvegicus
  ED50: 110 mg/kg
[3]; Rattus norvegicus, read-out: DE 50
  ED50: 40 mg/kg
[4]
  LD50: 700 mg/kg

## Cc1c(N(C)C)c(=O)n(-c2ccccc2)n1C [amidopyrine, 4-dimethylamino-2,3-dimethyl-1 phenyl-3-pyrazolin-5-one, reference compound]
[7]
  ED50: 45 mg/kg
[11]
  ED50: 48 mg/kg
[12]; test with acetic acid, mouse
  ED50: 80 mg/kg
[8]
  ED50: 35 mg/kg
[9]; Randall and Selitto test
  DE 50 / DL 50: 1.10^-1
[9]; Randall and Selitto test, rat
  ED50: 110 mg/kg
[3]; [14]
  ED50: 140 mg/kg
[4]
  LD50: 1050 mg/kg
mouse
  DE 50 (second column; DL 50): 1 050 mg/kg/PO

## O=C(OCC(O)CO)c1ccccc1Nc1ccnc2cc(Cl)ccc12 (stereo not drawn) [glaphenine, N-(7-chloro-4-quinolyl) anthranilic acid 2,3-dihydroxypropylester]
[7]
  ED50: 60 mg/kg
[11]
  ED50: 48 mg/kg
[12]; test with acetic acid, mouse
  ED50: 80 mg/kg
[9]; Randall and Selitto test, rat
  ED50: 65 mg/kg
[13]; 50 mg/kg rectally
  Duration of action: 1 h
  Number of rabbits whose pain threshold is increased by 0,5 V: 4/10
[13]; 100 mg/kg rectally
  Duration of action: 1,5 hours
  Number of rabbits whose pain threshold is increased by 0,5 V: 6/10
  Peak action: 45 mn
[13]; 200 mg/kg rectally
  Duration of action: 2 h
  Number of rabbits whose pain threshold is increased by 0,5 V: 8/10
[3]; [14]
  ED50: 9 mg/kg
[4]
  LD50: 1900 mg/kg
mouse
  DE 50 (second column; DL 50): 1 900 mg/kg/PO
